From patent US6555322B1, “α2-macroglobulin receptor as a receptor for CTGF” (FibroGen, Inc., priority 1999, dated 2003)
Each block holds one compound with its values, some of them ahead of it.

Assays:
LRP [1] = target: T1, LRP (Mus musculus, UniProt Q91ZX7); experiment: RAP-GST competition of CTGF binding on BMS-2 cells; parameters: species or system murine
T1 construct: endogenous in cells; host or cells: BMS2 (BMS-2) murine bone marrow stromal cells
Experimental: In a further study, receptor associated protein (RAP), a known inhibitor of ligand binding to LRP, was prepared. Plasmid DNA containing the human RAP cDNA sequence was obtained (ATCC as the I.M.A.G.E. Consortium Clone ID 511113, Lennon et al., 1996, Genomics, 33:151-152). The RAP sequence was sub-cloned into the pGEX4T-1 vector (Pharmacia) for the synthesis of a RAP-GST (glutathione S-transferase) fusion protein in E. coli. The fusion protein was purified over glutathione-Sepharose as described (Warshawsky et al., 1993, J. Biol. Chem., 268:22046-22054), and tested as a competitor of CTGF binding.

MG63 cells [2] = experiment: Internalization and degradation of 125I-rhCTGF during binding, with additives; format: cell-based, human; details: for degraded/internalized 125I-CTGF with additive: both cultures (control and TGF-β treated)
Experimental: Another experiment was performed in which the internalization and degradation of CTGF was followed during the time course of binding to the cells. Various additives were included in the binding medium to examine the effect(s) and specificity of CTGF binding and internalization through LRP.
MG63 cells were plated and treated with TGF-β for 24 or 48 hours as in the previous experiment.

MG63 cells [3] = experiment: CTGF production and accumulation in medium and cell layer (Western blot, densitometry); format: cell-based, human; details: RAP 10 nM
Experimental: To determine whether LRP was involved in the mediation of a CTGF signaling event, experiments were conducted to study the effect of anti-LRP antibodies on CTGF production and accumulation. MG63 cells were plated at 2.5×10^4 cells/cm^2 in 24 well plates in MEM with 10% FBS. The following day, the medium was changed to MEM with 0.5% FBS. Additionally, half of the wells were supplemented with 20 ng/ml TGF-β2. Some of the cells also received either anti-LRP antibodies (American Diagnostic) (3 ug/ml 3402 and 1 ug/ml 3501) or RAP (10 nM). At 15, 23, and 47 hours after exposure to these additives, medium and cell layers were harvested.
The harvested media was then incubated with heparin-SEPHAROSE for 4 hours. The beads were washed twice with RIPA buffer and the bound fraction was eluted with SDS-PAGE sample buffer. The cell layer was washed twice with PBS, then extracted for 15 min at 4° C. with RIPA buffer. The cell layer was collected by scraping, and centrifuged to remove the insoluble material. The soluble fraction was used for SDS-PAGE analysis. Both medium and cell layer samples were run non-reduced on 12% SDS-PAGE, then blotted to nitrocellulose. The nitrocellulose membranes were incubated with a rabbit polyclonal antibody made against rhCTGF (using procedures well known in the art), the data of which is shown in FIGS. 22A and 22B.

MG63 cells [4] = experiment: Internalization and degradation kinetics of 125I-CTGF with heparin or lactoferrin; format: cell-based, human; details: 3 μg/ml heparin or lactoferrin
Experimental: Experiments were performed in which the internalization and degradation kinetics of CTGF were followed in the presence or absence of a known LRP ligand, lactoferrin. Kinetics were followed in the presence or absence of 3 μg/ml heparin or lactoferrin. ^125I-CTGF was bound to MG63 cells at 4° C. and free CTGF was removed by washing the cells. Fresh medium was placed on the cells, and the cells were transferred to 37° C. At each time point, the medium was removed and TCA precipitated. Degraded ^125I-CTGF was quantified by measuring the cpm in the non-precipitable fraction (see FIG. 17). In parallel experiments, ^125I-CTGF was bound to MG63 cells at 4° C. and free CTGF was removed by washing the cells. Fresh medium was placed on the cells, and they were transferred to 37° C. At each time point, the cell layer was removed by extensive trypsinization at 4° C. The cells were centrifuged and the cpm associated with the pellet, the internalized fraction, was determined (see FIG. 18).

[5] = target: T2, high Mr CTGF binding protein on BMS-2 cells (Mus musculus, UniProt Q91ZX7); experiment: Binding analysis of 125I-CTGF competition with LRP ligands on BMS-2 cells; parameters: species or system murine; details: 0.1 nM 125I-CTGF
T2 construct: endogenous in cells; host or cells: BMS2 (BMS-2) murine bone marrow stromal cells
T2 sequence (Q91ZX7 20-4545): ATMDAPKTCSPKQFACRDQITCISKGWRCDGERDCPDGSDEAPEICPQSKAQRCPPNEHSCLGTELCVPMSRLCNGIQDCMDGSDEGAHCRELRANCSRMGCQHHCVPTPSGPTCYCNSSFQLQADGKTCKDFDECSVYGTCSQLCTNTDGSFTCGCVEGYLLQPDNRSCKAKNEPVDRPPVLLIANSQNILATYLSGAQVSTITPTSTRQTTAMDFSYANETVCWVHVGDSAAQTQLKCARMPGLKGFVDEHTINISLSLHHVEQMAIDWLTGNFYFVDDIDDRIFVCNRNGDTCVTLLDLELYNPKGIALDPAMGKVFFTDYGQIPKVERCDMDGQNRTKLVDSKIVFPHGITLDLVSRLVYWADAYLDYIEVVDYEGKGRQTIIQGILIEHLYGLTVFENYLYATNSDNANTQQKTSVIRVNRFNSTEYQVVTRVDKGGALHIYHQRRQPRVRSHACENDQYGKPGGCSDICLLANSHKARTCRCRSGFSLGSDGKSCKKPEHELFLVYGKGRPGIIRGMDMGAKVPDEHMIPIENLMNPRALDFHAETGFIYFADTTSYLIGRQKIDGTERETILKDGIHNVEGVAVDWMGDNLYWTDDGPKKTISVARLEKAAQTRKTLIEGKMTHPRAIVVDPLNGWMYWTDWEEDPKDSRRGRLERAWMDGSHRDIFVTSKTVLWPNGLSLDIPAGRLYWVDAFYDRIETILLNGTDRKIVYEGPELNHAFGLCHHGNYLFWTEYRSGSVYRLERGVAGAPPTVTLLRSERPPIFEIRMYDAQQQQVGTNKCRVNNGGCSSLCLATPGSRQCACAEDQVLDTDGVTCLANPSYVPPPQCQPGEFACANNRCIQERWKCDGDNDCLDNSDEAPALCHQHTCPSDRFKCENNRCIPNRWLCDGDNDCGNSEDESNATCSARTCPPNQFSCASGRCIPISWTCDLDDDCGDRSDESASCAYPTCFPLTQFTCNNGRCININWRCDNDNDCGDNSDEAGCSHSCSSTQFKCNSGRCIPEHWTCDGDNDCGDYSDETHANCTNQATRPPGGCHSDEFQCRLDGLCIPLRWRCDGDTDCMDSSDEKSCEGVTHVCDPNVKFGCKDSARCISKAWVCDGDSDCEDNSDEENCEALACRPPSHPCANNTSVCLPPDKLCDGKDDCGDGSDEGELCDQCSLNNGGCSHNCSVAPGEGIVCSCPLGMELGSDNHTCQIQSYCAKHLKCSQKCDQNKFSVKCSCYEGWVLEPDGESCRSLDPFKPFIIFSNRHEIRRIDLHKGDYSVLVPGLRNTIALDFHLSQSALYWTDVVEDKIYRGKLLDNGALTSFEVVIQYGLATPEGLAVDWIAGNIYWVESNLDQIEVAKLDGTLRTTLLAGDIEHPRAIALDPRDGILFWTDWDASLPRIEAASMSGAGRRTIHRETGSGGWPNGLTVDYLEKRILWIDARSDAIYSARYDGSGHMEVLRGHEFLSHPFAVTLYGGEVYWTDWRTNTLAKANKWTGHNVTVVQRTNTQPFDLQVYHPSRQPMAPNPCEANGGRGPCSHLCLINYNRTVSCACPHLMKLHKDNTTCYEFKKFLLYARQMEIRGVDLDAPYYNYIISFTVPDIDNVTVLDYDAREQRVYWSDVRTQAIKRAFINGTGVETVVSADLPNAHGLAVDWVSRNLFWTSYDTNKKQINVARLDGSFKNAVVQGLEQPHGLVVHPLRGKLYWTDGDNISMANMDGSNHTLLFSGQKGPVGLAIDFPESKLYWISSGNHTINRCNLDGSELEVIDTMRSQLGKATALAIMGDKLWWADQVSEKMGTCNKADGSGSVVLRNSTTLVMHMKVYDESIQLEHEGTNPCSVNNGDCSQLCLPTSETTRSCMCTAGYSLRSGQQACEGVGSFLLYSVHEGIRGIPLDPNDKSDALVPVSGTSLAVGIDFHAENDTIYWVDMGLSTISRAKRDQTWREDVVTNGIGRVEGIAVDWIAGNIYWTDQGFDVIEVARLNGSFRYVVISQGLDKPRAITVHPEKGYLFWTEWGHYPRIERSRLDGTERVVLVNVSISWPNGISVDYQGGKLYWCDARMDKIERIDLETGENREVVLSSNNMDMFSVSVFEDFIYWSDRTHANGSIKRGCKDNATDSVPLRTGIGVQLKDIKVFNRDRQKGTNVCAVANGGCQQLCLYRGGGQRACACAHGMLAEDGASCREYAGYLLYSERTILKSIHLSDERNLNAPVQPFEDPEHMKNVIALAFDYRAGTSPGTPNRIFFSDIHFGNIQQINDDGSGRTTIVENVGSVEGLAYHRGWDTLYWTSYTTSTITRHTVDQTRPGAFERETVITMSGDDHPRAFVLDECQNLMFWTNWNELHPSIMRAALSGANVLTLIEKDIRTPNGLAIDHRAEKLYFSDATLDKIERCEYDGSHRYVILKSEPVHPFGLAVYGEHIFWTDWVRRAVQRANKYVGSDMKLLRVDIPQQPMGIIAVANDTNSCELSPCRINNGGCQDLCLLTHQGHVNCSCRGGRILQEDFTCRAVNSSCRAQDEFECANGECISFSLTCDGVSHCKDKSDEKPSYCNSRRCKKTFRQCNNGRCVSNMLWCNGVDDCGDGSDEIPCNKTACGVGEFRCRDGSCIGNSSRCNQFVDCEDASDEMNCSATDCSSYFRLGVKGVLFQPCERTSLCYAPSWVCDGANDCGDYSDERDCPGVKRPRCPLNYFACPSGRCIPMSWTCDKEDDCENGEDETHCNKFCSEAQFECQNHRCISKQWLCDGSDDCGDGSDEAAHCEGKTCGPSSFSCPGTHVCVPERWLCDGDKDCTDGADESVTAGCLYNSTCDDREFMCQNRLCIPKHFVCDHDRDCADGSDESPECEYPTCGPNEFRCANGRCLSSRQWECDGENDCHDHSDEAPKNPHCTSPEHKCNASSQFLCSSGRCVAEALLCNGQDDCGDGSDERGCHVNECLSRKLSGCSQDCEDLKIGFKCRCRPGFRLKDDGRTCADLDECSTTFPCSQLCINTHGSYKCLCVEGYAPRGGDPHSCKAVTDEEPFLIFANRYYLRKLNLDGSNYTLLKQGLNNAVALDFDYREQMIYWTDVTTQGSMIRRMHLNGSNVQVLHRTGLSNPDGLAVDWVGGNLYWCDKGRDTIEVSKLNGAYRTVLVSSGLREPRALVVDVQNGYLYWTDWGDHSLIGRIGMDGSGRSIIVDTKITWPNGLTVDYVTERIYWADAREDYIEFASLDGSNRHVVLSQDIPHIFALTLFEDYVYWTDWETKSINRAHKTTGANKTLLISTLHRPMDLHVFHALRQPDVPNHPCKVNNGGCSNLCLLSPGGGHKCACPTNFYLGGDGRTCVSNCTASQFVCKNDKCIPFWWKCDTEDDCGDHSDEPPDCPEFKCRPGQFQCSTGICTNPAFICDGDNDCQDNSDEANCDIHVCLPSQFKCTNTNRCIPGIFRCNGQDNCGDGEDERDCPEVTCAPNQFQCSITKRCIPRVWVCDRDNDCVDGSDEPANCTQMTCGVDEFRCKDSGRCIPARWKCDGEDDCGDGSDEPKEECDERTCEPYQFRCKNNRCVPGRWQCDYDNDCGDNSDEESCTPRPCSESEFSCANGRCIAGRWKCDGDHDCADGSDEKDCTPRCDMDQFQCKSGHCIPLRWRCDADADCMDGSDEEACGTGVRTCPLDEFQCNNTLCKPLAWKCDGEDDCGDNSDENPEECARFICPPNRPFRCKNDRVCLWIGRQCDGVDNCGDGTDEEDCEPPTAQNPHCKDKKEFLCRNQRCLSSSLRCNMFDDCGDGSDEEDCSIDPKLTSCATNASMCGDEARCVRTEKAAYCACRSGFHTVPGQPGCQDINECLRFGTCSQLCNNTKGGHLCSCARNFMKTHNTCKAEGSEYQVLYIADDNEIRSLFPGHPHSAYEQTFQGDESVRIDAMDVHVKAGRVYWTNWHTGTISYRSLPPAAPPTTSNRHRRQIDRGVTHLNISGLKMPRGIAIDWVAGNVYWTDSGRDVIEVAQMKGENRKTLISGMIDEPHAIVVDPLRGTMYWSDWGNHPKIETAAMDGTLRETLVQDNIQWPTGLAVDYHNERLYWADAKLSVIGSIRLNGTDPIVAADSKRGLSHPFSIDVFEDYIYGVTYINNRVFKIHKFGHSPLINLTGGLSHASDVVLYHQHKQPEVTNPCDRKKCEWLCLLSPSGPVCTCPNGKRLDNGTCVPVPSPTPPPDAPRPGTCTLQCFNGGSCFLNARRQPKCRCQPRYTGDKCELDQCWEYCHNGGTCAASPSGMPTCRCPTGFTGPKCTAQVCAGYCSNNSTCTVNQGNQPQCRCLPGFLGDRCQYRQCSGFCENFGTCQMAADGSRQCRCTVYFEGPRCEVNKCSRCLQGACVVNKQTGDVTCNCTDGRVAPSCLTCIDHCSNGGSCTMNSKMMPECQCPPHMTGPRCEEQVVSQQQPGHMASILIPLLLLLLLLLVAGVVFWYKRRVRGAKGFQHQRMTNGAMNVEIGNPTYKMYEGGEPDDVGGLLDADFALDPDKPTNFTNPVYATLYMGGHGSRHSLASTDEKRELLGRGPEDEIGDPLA
Experimental: BMS-2 cells were incubated with 0.1 nM ^125I-CTGF in the presence of unlabeled CTGF, recombinant human apoE, low density lipoprotein purified from human plasma (LDL), or lipoprotein lipase purified from bovine milk (LpL).

LRP [6] = target: T1, LRP; experiment: Competitive binding and cross-linking of LRP ligands with 125I-CTGF on BMS-2 cells; parameters: species or system murine; details: 50 pM 125I-CTGF; CTGF 21.5 nM, BP5 201-218 50 μg/ml, LF 25 μg/ml, apo E 20 μg/ml, LpL 20 μg/ml
Experimental: To examine whether ligands known to bind to LRP inhibit CTGF binding, BMS-2 cells were labeled with 50 pM ^125I-CTGF in the presence or absence of unlabeled ligand (CTGF: 21.5 nM; BP5^201-218: 50 μg/ml or […] (Campbell and Andress, 1997, Am. J. Physiol., 273:E1005-13); lactoferrin (LF): 25 μg/ml or 250 nM; apo E: 20 μg/ml or 574 nM; lipoprotein lipase (LpL): 20 μg/ml or 400 nM). The cells were cross-linked and the receptor complexes were solubilized, processed on SDS-PAGE and visualized by autoradiography.

T1 sequence (Q91ZX7 20-4545): as above

Compound: CCN(CC)CCCC(C)Nc1ccnc2cc(Cl)ccc12 (centres unmarked) [chloroquin, Chloroquin]
rhCTGF remaining internalized, TGF-β treated cultures (MG63 cells [2]; chloroquin treated samples, TGF-β treated cultures): ~400 fmol
rhCTGF remaining internalized, control cultures (MG63 cells [2]; chloroquin treated samples, control cultures): About 1000 fmoles
secretion of CTGF degradation products into the medium (MG63 cells [2]; in the presence of chloroquin): not secreted into the medium

Compound: heparin [reference compound]
rate of degradation of CTGF (MG63 cells [4]): reduced the rate
rate of internalization of CTGF (MG63 cells [4]): reduced the rate

Compound: CC(C)C[C@H](NC(=O)[C@@H](NC(=O)N[C@@H](Cc1ccccc1)C(=O)O)[C@@H]1CCN=C(N)N1)C(=O)N[C@H](C=O)Cc1ccccc1 [Chymostatin]
degraded/internalized 125I-CTGF with additive (MG63 cells [2]): no appreciable affect

Compound: apolipoprotein E [apoE, reference compound]
competition with 125I-CTGF [5]: competed
competing the binding to the LRP receptor (LRP [6]): very effective in competing

More lines, main results first:

competition for CTGF binding to LRP (LRP [1]): able to compete
Compound: RAP-GST: human receptor associated protein as glutathione S-transferase fusion protein made in E. coli; inhibitor of ligand binding to LRP
degraded/internalized 125I-CTGF with additive (MG63 cells [2]): to background levels
CTGF levels in cell layer, RAP treated samples (MG63 cells [3]): slightly increased levels
CTGF medium concentration at 15 and 23 hours (MG63 cells [3]): an increase
CTGF medium levels at 47 hours (MG63 cells [3]): returned to basal levels

competition for CTGF binding to LRP (LRP [1]): no competitive activity
Compound: GST: GST protein by itself, control for RAP-GST
